Measured values from ChEMBL document CHEMBL3870340, “Cytotoxic activity, apoptosis induction and structure-activity relationship of 8-OR-2-aryl-3,4-dihydroisoquinolin-2-ium salts as promising anticancer agents” (Bioorg Med Chem Lett, 2017).
The source made the active and inactive calls. The rule behind the calls is not given here.

Columns and labels:
[1] = Cytotoxicity against human NB4 cells assessed as decrease in cell viability after 48 hrs by MTT assay; type: functional, cell-based; details: NB-4, 48 h
[2] = Cytotoxicity against human MKN45 cells assessed as decrease in cell viability after 48 hrs by MTT assay; type: functional, cell-based; details: MKN-45, 48 h
[3] = Antiproliferative activity against human MKN45 cells at 20 uM after 48 hrs by MTT assay relative to control; type: functional; details: MKN-45, 48 h, read-out: GI
[4] = Antiproliferative activity against human NB4 cells at 5 uM after 48 hrs by MTT assay relative to control; type: functional; details: NB-4, 48 h, read-out: GI
[5] = Cytotoxicity against primary goat fetal fibroblast assessed as decrease in cell viability after 48 hrs by MTT assay; type: toxicity; details: goat (Capra hircus), primary goat fetal fibroblasts
[6] = Cytotoxicity against primary porcine fetal kidney cells assessed as decrease in cell viability after 48 hrs by MTT assay; type: toxicity, cell-based; details: pig (Sus scrofa)
MKN-45 [7] = assay: Induction of morphological changes in human MKN45 cells assessed as cell shrinkage at 0.41 uM after 48 hrs by acridine orange/ethidium bromide staining based fluorescence microscopy; type: functional
MKN-45 [8] = assay: Induction of morphological changes in human MKN45 cells assessed as pyknosis in early apoptotic events at 0.41 uM after 48 hrs by acridine orange/ethidium bromide staining based fluorescence microscopy; type: functional, cell-based
MKN-45 [9] = assay: Induction of morphological changes in human MKN45 cells assessed as change in cytomembrane permeability at 0.41 uM after 48 hrs by acridine orange/ethidium bromide staining based fluorescence microscopy; type: functional, cell-based
MKN-45 [10] = assay: Induction of morphological changes in human MKN45 cells assessed as condensation of cell nuclei and chromatins at 0.41 uM after 48 hrs by acridine orange/ethidium bromide staining based fluorescence microscopy; type: functional
MKN-45 [11] = assay: Induction of morphological changes in human MKN45 cells assessed as apoptotic cells at 2.03 uM after 48 hrs by acridine orange/ethidium bromide staining based fluorescence microscopy; type: functional, cell-based
MKN-45 [12] = assay: Induction of morphological changes in human MKN45 cells assessed as late apoptotic cells at 10.1 uM after 48 hrs by acridine orange/ethidium bromide staining based fluorescence microscopy; type: functional, cell-based
MKN-45 [13] = assay: Induction of apoptosis in human MKN45 cells after 48 hrs by acridine orange/ethidium bromide staining based fluorescence microscopy; type: functional, cell-based
MKN-45 [14] = assay: Induction of apoptosis in human MKN45 cells assessed as viable cells at 2.03 uM after 48 hrs by annexin V/PI double staining based flow cytometry (reference value: 99.8%); type: functional; details: MKN-45, 48 h, read-out: Activity
MKN-45 [15] = assay: Induction of apoptosis in human MKN45 cells assessed as early apoptotic cells at 2.03 uM after 48 hrs by annexin V/PI double staining based flow cytometry (reference value: 0.1%); type: functional
MKN-45 [16] = assay: Induction of apoptosis in human MKN45 cells assessed as late apoptotic cells at 2.03 uM after 48 hrs by annexin V/PI double staining based flow cytometry (reference value: 0%); type: functional
MKN-45 [17] = assay: Induction of apoptosis in human MKN45 cells assessed as necrotic cells at 2.03 uM after 48 hrs by annexin V/PI double staining based flow cytometry (reference value: 0.1%); type: functional
MKN-45 [18] = assay: Induction of apoptosis in human MKN45 cells assessed as viable cells at 10.1 uM after 48 hrs by annexin V/PI double staining based flow cytometry (reference value: 99.8%); type: functional; details: MKN-45, 48 h, read-out: Activity
MKN-45 [19] = assay: Induction of apoptosis in human MKN45 cells assessed as early apoptotic cells at 10.1 uM after 48 hrs by annexin V/PI double staining based flow cytometry (reference value: 0.1%); type: functional
MKN-45 [20] = assay: Induction of apoptosis in human MKN45 cells assessed as late apoptotic cells at 10.1 uM after 48 hrs by annexin V/PI double staining based flow cytometry (reference value: 0%); type: functional
MKN-45 [21] = assay: Induction of apoptosis in human MKN45 cells assessed as necrotic cells at 10.1 uM after 48 hrs by annexin V/PI double staining based flow cytometry (reference value: 0.1%); type: functional
NB-4 [22] = assay: Induction of apoptosis in human NB4 cells assessed as viable cells at 2.30 uM after 48 hrs by annexin V/PI double staining based flow cytometry (reference value: 96.4%); type: functional; details: NB-4, 48 h, read-out: Activity
NB-4 [23] = assay: Induction of apoptosis in human NB4 cells assessed as early apoptotic cells at 2.30 uM after 48 hrs by annexin V/PI double staining based flow cytometry (reference value: 2.3%); type: functional
NB-4 [24] = assay: Induction of apoptosis in human NB4 cells assessed as late apoptotic cells at 2.30 uM after 48 hrs by annexin V/PI double staining based flow cytometry (reference value: 0.7%); type: functional
NB-4 [25] = assay: Induction of apoptosis in human NB4 cells assessed as necrotic cells at 2.30 uM after 48 hrs by annexin V/PI double staining based flow cytometry (reference value: 0.6%); type: functional
NB-4 [26] = assay: Induction of apoptosis in human NB4 cells assessed as viable cells at 11.5 uM after 48 hrs by annexin V/PI double staining based flow cytometry (reference value: 96.4%); type: functional; details: NB-4, 48 h, read-out: Activity
NB-4 [27] = assay: Induction of apoptosis in human NB4 cells assessed as early apoptotic cells at 11.5 uM after 48 hrs by annexin V/PI double staining based flow cytometry (reference value: 2.3%); type: functional
NB-4 [28] = assay: Induction of apoptosis in human NB4 cells assessed as late apoptotic cells at 11.5 uM after 48 hrs by annexin V/PI double staining based flow cytometry (reference value: 0.7%); type: functional
NB-4 [29] = assay: Induction of apoptosis in human NB4 cells assessed as necrotic cells at 11.5 uM after 48 hrs by annexin V/PI double staining based flow cytometry (reference value: 0.6%); type: functional
NB-4 [30] = assay: Induction of apoptosis in human NB4 cells after 48 hrs by annexin V/PI double staining based flow cytometry; type: functional, cell-based
MKN-45 [31] = assay: Induction of apoptosis in human MKN45 cells after 48 hrs by annexin V/PI double staining based flow cytometry; type: functional, cell-based
NB-4 [32] = assay: Induction of morphological changes in human NB4 cells assessed as apoptotic features at 0.46 to 11.5 uM after 48 hrs by acridine orange/ethidium bromide staining based fluorescence microscopy; type: functional, cell-based

Work on COc1cccc2c1C=[N+](c1ccccc1I)CC2.[Br-] yielded an IC50 [1] of 2300 nM, an IC50 [2] of 2030 nM and an inhibition of growth at 20 µM [3] of 90.9%. It also gave an inhibition of growth at 5 µM [4] of 49.7%, an IC50 at 48 h [5] of 3.51 µM and an IC50 at 48 h [6] of 2410 nM. For the same molecule, the Activity (MKN-45 [7]) was “Active”, the Activity (MKN-45 [8]) was “Active” and the Activity (MKN-45 [9]) was “Active”. For the same molecule, the Activity (MKN-45 [10]) was “Active”, the Activity (MKN-45 [11]) was “Active” and the Activity (MKN-45 [12]) was “Active”. The Activity (MKN-45 [13]) was “Dose-dependent effect”, the viability at 2.03 µM (MKN-45 [14]) was 82.2% and the Activity (MKN-45 [15]) was 12.8%. The Activity (MKN-45 [16]) was 4.6%, the Activity (MKN-45 [17]) was 0.4% and the viability at 10.1 µM (MKN-45 [18]) was 46%. The Activity (MKN-45 [19]) was 20.1%, the Activity (MKN-45 [20]) was 32% and the Activity (MKN-45 [21]) was 1.9%. It also gave a viability at 2.3 µM (NB-4 [22]) of 90.1%, an Activity (NB-4 [23]) of 7.7% and an Activity (NB-4 [24]) of 2.2%. For the same molecule, the Activity (NB-4 [25]) was 0%, the viability at 11.5 µM (NB-4 [26]) was 77.9% and the Activity (NB-4 [27]) was 14.7%. For the same molecule, the Activity (NB-4 [28]) was 7.1%, the Activity (NB-4 [29]) was 0.3% and the Activity (NB-4 [30]) was “Dose-dependent effect”. The Activity (MKN-45 [31]) was “Dose-dependent effect” and the Activity (NB-4 [32]) was “Active”.
